Several values for one entry are separate records, joined by “and”; a condition that tells them apart may be missing. Identical values can stand only once. Like-named read-outs stand apart in the source and are kept apart here.
Assays:
T. cruzi Brazil strain [1] = system: T. cruzi Brazil strain; design: method as in PMID 23945371; details: cited from earlier work
[2] = system: T. cruzi intracellular amastigotes; test: In vitro anti-T. cruzi intracellular amastigote growth inhibition assay (tdTomato fluorescence over 72 hours, Vero cells); assay type: cell-based, Trypanosoma cruzi; details: Trypanosoma cruzi, Vero
Method: (§1) The in vitro anti-T. cruzi amastiogote activity assay was performed and optimized based on the protocol described previously. The change in tdTomato fluorescence intensity was determined as a measurement of growth over 72 hours of culture. For assaying drug effects on extracellular amastigotes, trypomastigotes were collected from infected Vero cell cultures and converted in acidic media as previously described. Amastigotes (50,000/well) were incubated with 2-fold serial dilutions of compounds for 48 hours. The ATP production was used as an indication of growth in this case, and was measured by ATPlite Luminescence ATP Detection Assay System (PerkinElmer). Both fluorescence and luminescence were read using a BioTek Synergy Hybrid Multi-Mode reader equipped with the software Gene5 v 2.0 (BioTek). The dose-response curve was generated by […] analysis with GraphPad Prism v9.4.0 (GraphPad Software).

[3] = in vivo
[4] = system: representative cytochrome P450 enzymes; test: Cytochrome P450 inhibition; assay type: in vitro ADME; details: 10 uM
[5] = system: CPSF3-OE T. cruzi intracellular amastigotes; test: microbe, parasite or virus in culture; assay type: cell-based; details: Trypanosoma cruzi, read-out: CPSF3-OE IC50, intracellular amastigotes
Method: as §1
The CPSF3 gene was amplified using primers ‘[…]’ and ‘[…]’, and integrated into the pTrex vector [47] by NEBuilder HiFi DNA assembly (New England Biolabs). The construct of pTrex-CPSF was then transfected into Brazil tdTomato epimastigotes and selected by 60ug/ml blasticidin.
To confirm the CPSF overexpression in the selected transfectants, RNA was extracted as previously described and converted to cDNA using SuperScript Reverse Transcriptase (Invitrogen). Quantitative PCR reactions were performed in triplicate on the C1000 Touch Bio-Rad CFX96 real-time PCR detection system for CPSF using primer sets CPSF-1 (5'-[…]-3' and 5'-[…]-3') and CPSF-2 (5'-[…]-3' and 5'-[…]-3') in both control and CPSF over-expressing parasites, and the expression level was normalized to tubulin which was amplified using primers: ‘[…]’ and ‘[…]’.

[6] = system: broad array of mammalian enzymes, receptors and ion channels; test: Preliminary safety pharmacology panel; assay type: binding
T. cruzi Brazil strain [7] = test: Mouse cure assays (daily oral treatment, immunosuppression, qPCR of skeletal muscle, blood microscopy, hemoculture); assay type: in vivo, C57BL/6 mice; details: individual mice
Method: Male or female C57BL/6 mice were intraperitoneally infected with 10^4 trypomastigotes of the Brazil strain. Mouse infection was confirmed at 25-30 dpi by detection of CD8^+ T cells specific against the T. cruzi TSKb20 peptide in blood. Compounds resuspended in 1% carboxymethyl cellulose and 0.1% Tween 80, were administered daily by gavage at the specified concentrations. In order to optimally detect persistent infection, immune responses in the mice were suppressed by intraperitoneal injection of four doses of cyclophosphamide every 2-3 days (200 mg/kg/day), beginning one week after the end of therapeutic treatment. At the end of the immunosuppression regimen, peripheral blood was checked under light microscope for parasites and cultured in LDNT media. Mouse skeletal muscle samples were obtained at the end of the immunosuppression and processed for T. cruzi-DNA detection by qPCR as previously described.

[8] = system: TcCBP KO T. cruzi intracellular amastigotes; test: microbe, parasite or virus in culture; assay type: cell-based; details: Trypanosoma cruzi, read-out: TcCBP KO IC50
Method: as §1
The CBPs knockout was produced using ribonucleoprotein (RNP) complexes as previously described. Briefly, Brazil tdTomato strain epimastigotes were electroporated with RNP complexes containing SaCas9 and an sgRNA targeting CBP gene TcBrA4_0048170, plus a repair template containing stop codons in all three reading frames and the M13 sequence for use as a PCR anchor. The sgRNA targeted the ‘[…]” sequence. After 2 days of recovery, single-cell clones were derived by depositing epimastigotes into a 96-well plate at a density of 0.5 cell/well by using a MoFlo Astrios EQ cell sorter (Beckman Coulter). DNA isolation was performed for clones, and primer pair of 5’-[…]-3’ and 5’- […] -3’ was used for amplifying the wild type allele, while primer pair of M13-F: 5’- […] -3’ and 5’- […] -3’ was used for amplifying the mutant allele.

[9] = High dose 7-day toxicology study with exposure; details: 7-day toxicology studies / rats
[10] = In vitro micronucleus study; assay type: cell-based
[11] = system: T. cruzi CL strain in Vero cells; test: RNA-seq: parasite mRNA relative to host cell (Vero) mRNA; assay type: cell-based, Trypanosoma cruzi
Method: The drug concentration used for treatment was set at 5 times the IC50. Samples were collected at several time points for RNA extraction as previously described. rRNA-depleted RNA library construction and RNA sequencing using Illumina Nextseq 75PE was carried out by Georgia Genomics and Bioinformatics Core (GGBC, University of Georgia, Georgia). […] The mapping rate was quantified by HTseq v0.6.1 [51].

T. cruzi = details: cited from earlier work
[12] = in vitro, Fig. 1a, Extended Data Fig. 1a, read-out: T. cruzi IC50

O=C(Nc1ccc2c(c1)B(O)OC2)c1ccc(F)cc1C(F)(F)F [AN4169]
cure of infected mice (T. cruzi Brazil strain [1]; mice infected with the T. cruzi Brazil strain): 100% | IC50 [2, 12]: 0.35 µM | rodent tolerability [3]: insufficient therapeutic margin

Cc1c(C(=O)N[C@H](C(=O)OCc2ccc(F)cc2)C(C)(C)O)ccc2c1B(O)OC2 [AN14817]
inhibition of representative cytochrome P450 enzymes [4]: did not demonstrate significant inhibition | IC50 [5]: 0.0248 µM | genotoxicity, Ames (Ames study): non-genotoxic | affinity for mammalian enzymes, receptors and ion channels [6]: little to no affinity | Parasite equivalent/ 50 ng of DNA of skeletal muscle (T. cruzi Brazil strain [7]; Fig. 3b, mice treated for 40 days): 0.12 Parasite equivalent/ 50 ng of DNA and 0.09 Parasite equivalent/ 50 ng of DNA and 0.00383 Parasite equivalent/ 50 ng of DNA and 0.0341 Parasite equivalent/ 50 ng of DNA and 0.00725 Parasite equivalent/ 50 ng of DNA and 0.00351 Parasite equivalent/ 50 ng of DNA and 0.0145 Parasite equivalent/ 50 ng of DNA and 0.17 Parasite equivalent/ 50 ng of DNA | Parasite equivalent/ 50 ng of DNA of skeletal muscle (T. cruzi Brazil strain [7]; Fig. 3c, mice treated for 20 days): 0.30 Parasite equivalent/ 50 ng of DNA and 0.59 Parasite equivalent/ 50 ng of DNA and 0.42 Parasite equivalent/ 50 ng of DNA and 0.29 Parasite equivalent/ 50 ng of DNA and 0.40 Parasite equivalent/ 50 ng of DNA | IC50 [8]: 2.2 µM | activity at 0.00407 µM ([2]; 72 h, read-out: % of maximum, WT, [uM] -2.39 [sic], single replicates): 79% | IC50 ([2]; read-out: WT IC50, WT intracellular amastigotes, control of CPSF3-OE comparison): 0.0063 µM | IC50 ([2]; read-out: WT IC50, WT intracellular amastigotes, control of TcCBP KO comparison): 0.0063 µM | IC50 [2, 12]: 0.012 µM | dose proportionality of exposure [9]: non-dose proportional exposure | genotoxicity, in vitro micronucleus [10]: non-genotoxic

O=C(Cn1ccnc1[N+](=O)[O-])NCc1ccccc1 [benznidazole, reference compound]
RNA-seq reads mapped to African green monkey ([11]; 0hpt): 52 | RNA-seq reads mapped to T.cruzi CL Brener ([11]; 0hpt): 17 | RNA-seq reads unmapped ([11]; 0hpt): 31 | RNA-seq reads mapped to African green monkey ([11]; 12hpt): 61 | RNA-seq reads mapped to T.cruzi CL Brener ([11]; 12hpt): 14 | RNA-seq reads unmapped ([11]; 12hpt): 25 | RNA-seq reads mapped to African green monkey ([11]; 24hpt): 62 | RNA-seq reads mapped to T.cruzi CL Brener ([11]; 24hpt): 12 | RNA-seq reads unmapped ([11]; 24hpt): 27 | cure with 20 days of treatment (T. cruzi Brazil strain [1]; mice): only partially effective in generating cure | failures in treatment trial (T. cruzi; T. cruzi-infected NHPs, ref Tarleton, et al., in preparation): > 60% | cure rate (T. cruzi; cyno macaques, ref unpublished result of the authors): ~ 30%

Reference: PMC9519446, “Discovery of an Orally Active Benzoxaborole Prodrug Effective in the Treatment of Chagas Disease in Non-human Primates” (Nature microbiology, 2022)
